Test results from patent US7772252B2, “Heterocyclic substituted carbonyl derivatives and their use as dopamine D3 receptor ligands” (Aventis Pharmaceuticals Inc., priority 2001, dated 2010).

molecular target: T1, cloned human dopamine D3 receptors (Homo sapiens, UniProt P35462); test: [N-Methyl-3H]Spiroperidol binding to cloned human dopamine D3 receptors; details: D3 Ki (nM)
T1 construct: expressed in transfected cells; membrane homogenate
Outline: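 Radioligand displacement with [N-methyl-3H]spiroperidol was run on membranes from a high-expressing CHO clone carrying human D3. Membranes were prepared in 10% DMSO and stored at −80° C.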

T1 sequence (P35462 whole entry): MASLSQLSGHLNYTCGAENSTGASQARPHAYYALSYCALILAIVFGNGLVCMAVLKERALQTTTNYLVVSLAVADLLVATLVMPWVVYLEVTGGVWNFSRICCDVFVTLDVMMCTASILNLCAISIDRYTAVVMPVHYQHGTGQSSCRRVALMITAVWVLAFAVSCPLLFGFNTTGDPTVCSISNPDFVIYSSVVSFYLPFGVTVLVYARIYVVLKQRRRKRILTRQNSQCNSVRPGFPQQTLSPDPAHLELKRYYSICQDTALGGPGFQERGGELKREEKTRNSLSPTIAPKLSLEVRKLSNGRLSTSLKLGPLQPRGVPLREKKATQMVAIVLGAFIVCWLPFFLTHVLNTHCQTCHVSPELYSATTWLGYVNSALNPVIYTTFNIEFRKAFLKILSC

O=C([C@@H]1C[C@H]1CN1CCC(c2noc3ccsc23)CC1)N1CCC2(CC1)OCCO2 [compound 829466] was tested, and the Ki was 24.8 nM.

same assay, conditions: read-out: D3 Ki

In order of falling Ki:
1. CC(=O)N1CCC(CNC(=O)[C@@H]2C[C@H]2CN2CCN(c3csc4cc(C(F)(F)F)ccc34)CC2)CC1 [compound 833065]  692 nM
2. C[C@H]1CC[C@H](NC(=O)[C@@H]2CC[C@H]2CN2CCCN(c3noc4ccsc34)CC2)CC1 (racemic) [compound 830000]  286 nM
3. O=C(C1CC1CN1CCC(c2noc3ccsc23)CC1)N1CCN(S(=O)(=O)c2ccccc2)CC1 (racemic) [compound 831835]  234 nM
4. CC(C)(C)OC(=O)N1CCCCC1CCNC(=O)[C@@H]1C[C@H]1CN1CCN(c2csc3cc(C(F)(F)F)ccc23)CC1 (mixture of isomers) [compound 832500]  161 nM
5. COc1ccc(CN2CCN(C(=O)[C@@H]3C[C@H]3CN3CCC(c4noc5ccsc45)CC3)CC2)cc1 [compound 833133]  114 nM
6. O=C(C1COc2ccccc2O1)N1CCN(C(=O)C2CC2CN2CCC(c3noc4ccsc34)CC2)CC1 (racemic) [compound 832055]  112 nM
7. O=C(Nc1ccccn1)C1CC1CN1CCC(c2noc3ccsc23)CC1 (racemic) [compound 827397]  111 nM
8. CN1CCN(C(=O)C2CC2CN2CCC(c3noc4ccsc34)CC2)CC1 (racemic) [compound 829590]  109 nM
9. CC1CCN(CCCNC(=O)[C@@H]2C[C@H]2CN2CCN(c3nn(C)c4ccsc34)CC2)CC1 [A002350369]  100 nM
10. O=C(C1CC1CN1CCC(c2noc3ccsc23)CC1)N1CCN(S(=O)(=O)c2ccc(-c3ccccc3)cc2)CC1 (racemic) [compound 831836]  94.3 nM
11. COc1cccc2c(C3CCN(C[C@@H]4C[C@H]4C(=O)NCCCn4ccnc4)CC3)nn(C)c12 [compound 834058]  91.4 nM
12. CC(C)N1CCN(C(=O)[C@@H]2C[C@H]2CN2CCC(c3noc4ccsc34)CC2)CC1 [compound 833127]  79.6 nM
13. O=C(NCCCN1CCCC1=O)[C@@H]1C[C@H]1CN1CCC(c2noc3ccsc23)CC1 [compound 830832]  67.7 nM
14. COc1cccc2c(C3CCN(C[C@@H]4C[C@H]4C(=O)NC4CC5CC(C4C)C5(C)C)CC3)nn(C)c12 (some centres unmarked) [compound 834171]  65.2 nM
15. O=C(NCc1cccc(OC(F)(F)F)c1)[C@@H]1C[C@H]1CN1CCN(c2csc3cc(C(F)(F)F)ccc23)CC1 [compound 833062]  55.4 nM
16. COc1ccc2c(c1)c(N1CCN(C[C@@H]3C[C@H]3C(=O)N3CCN(C(C)C)CC3)CC1)nn2C [compound 833122]  52.9 nM
17. O=C([C@@H]1C[C@H]1CN1CCC(c2noc3ccsc23)CC1)N1CCC(O)CC1 [compound 830250]  48.6 nM
18. Cc1ncc([N+](=O)[O-])n1CCNC(=O)[C@@H]1C[C@H]1CN1CCC(c2noc3ccsc23)CC1 [compound 831379]  46.7 nM
19. O=C(NCCCn1ccnc1-c1ccccc1)[C@@H]1C[C@H]1CN1CCC(c2noc3ccsc23)CC1 [compound 831378]  35.6 nM
20. O=C(NCCN1CCCCC1)[C@@H]1C[C@H]1CN1CCN(c2csc3cc(C(F)(F)F)ccc23)CC1 [compound 831885]  35.3 nM
21. O=C([C@H](O)CCN1CCC(c2noc3ccsc23)CC1)N1CCCCC1 [compound 830558]  34.2 nM
22. CC(C)(C)OC(=O)N1CCC(CNC(=O)[C@@H]2C[C@H]2CN2CCC(c3nn(-c4ccccc4)c4ccsc34)CC2)CC1 [A002439262]  28.3 nM
23. CC(C)NC(=O)CN1CCN(C(=O)[C@@H]2C[C@H]2CN2CCN(c3csc4cc(C(F)(F)F)ccc34)CC2)CC1 [compound 832582]  25 nM
24. O=C(NCCCN1CCCCC1)C1(CCN2CCN(c3csc4cc(C(F)(F)F)ccc34)CC2)CC1 [compound 833475]  22.4 nM
25. COc1ccc(CCNC(=O)[C@@H]2C[C@H]2CN2CCC(c3noc4ccsc34)CC2)cc1 [compound 831344]  22.1 nM
26. O=C(OCc1ccccc1)N1CCN(C(=O)C2CC2CN2CCC(c3noc4ccsc34)CC2)CC1 (racemic) [compound 831453]  18.3 nM
27. O=C([C@@H]1C[C@H]1CN1CCC(c2noc3ccsc23)CC1)N1CCN(CCc2cccs2)CC1 [compound 833163]  17.5 nM
28. CN(C)CCCNC(=O)[C@@H]1C[C@H]1CN1CCN(c2csc3cc(C(F)(F)F)ccc23)CC1 [compound 831888]  17.5 nM
29. O=C(C1CC1CN1CCC(c2noc3ccsc23)CC1)N1CCN(CCCc2ccccc2)CC1 (racemic) [compound 832197]  17.1 nM
30. O=C([C@@H]1C[C@H]1CN1CCC(c2noc3ccsc23)CC1)N1CCN(CCCc2ccccc2)CC1 [compound 833131]  16.8 nM
31. O=C([C@@H]1C[C@H]1CN1CCN(c2csc3cc(C(F)(F)F)ccc23)CC1)N1CCC[C@H](CO)C1 [A002438636]  13 nM
32. O=C(NCCCN1CCCCCC1)[C@@H]1C[C@H]1CN1CCN(c2csc3cc(C(F)(F)F)ccc23)CC1 [compound 832511]  12.3 nM
33. O=C(NC1CCN(Cc2cccc(F)c2F)CC1)C1CC1CN1CCC(c2noc3ccsc23)CC1 (racemic) [compound 832340]  11.5 nM
34. O=C(NCCC1CCCCN1)[C@@H]1C[C@H]1CN1CCN(c2csc3cc(C(F)(F)F)ccc23)CC1 (mixture of isomers) [compound 832503]  11.1 nM
35. CCC1CCC(NC(=O)C2CC2CN2CCC(c3ccccc3Cc3ccccc3)CC2)CC1 (racemic) [compound 830132]  9.26 nM
36. O=C(NCCCc1ccccc1)[C@@H]1C[C@H]1CN1CCC(c2noc3ccsc23)CC1 [compound 830828]  8.57 nM
37. O=C(NC1CCN(Cc2cccnc2)CC1)C1CC1CN1CCC(c2noc3ccsc23)CC1 (racemic) [compound 832394]  8.32 nM
38. O=C(NCCCn1ccnc1)[C@@H]1C[C@H]1CN1CCN(c2nn(-c3ccc(OC(F)(F)F)cc3)c3ccsc23)CC1 [compound 833333]  8.11 nM
39. O=C(NCCCn1ccnc1)[C@@H]1C[C@H]1CN1CCN(c2nn(-c3ccc(C(F)(F)F)cc3)c3ccsc23)CC1 [compound 832634]  7.63 nM
40. O=C(NC1CCN(Cc2ccc(Cl)c(Cl)c2)CC1)[C@@H]1C[C@H]1CN1CCC(c2cc3ccccc3s2)CC1 [compound 832716]  7.54 nM
41. C[C@H]1CC[C@H](NC(=O)[C@@H]2C[C@H]2CN2CCN(c3nc4cccc5c4n3CCC5)CC2)CC1 [compound 833699, 2R-[4-(5,6-Dihydro-4H-imidazo[4,5,1-ij]quinolin-2-yl)-piperazin-1-ylmethyl]-1R-cyclopranecarboxylic acid (trans-4-methyl-cyclohexyl)-amide]  7.2 nM
42. CN1CCN(CCCNC(=O)[C@@H]2C[C@H]2CN2CCC(c3nsc4cc(Br)ccc34)CC2)CC1 [A002438664]  6.49 nM
43. O=C(NCCCN1CCCC1)[C@@H]1C[C@H]1CN1CCC(c2noc3ccsc23)CC1 [compound 831272]  6.22 nM
44. O=C(NCCC1=CCCCC1)[C@@H]1C[C@H]1CN1CCC(c2noc3ccsc23)CC1 [compound 831215]  5.92 nM
45. Cc1ccc2[nH]cc(CCNC(=O)[C@@H]3C[C@H]3CN3CCC(c4noc5ccsc45)CC3)c2c1 [compound 831277]  5.38 nM
46. O=C(NCCCn1ccnc1)[C@@H]1C[C@H]1CN1CCN(c2csc3cc(C(F)(F)F)ccc23)CC1 [compound 831269]  4.08 nM
47. O=C(NC1CCN(C(=O)Nc2ccc(Cl)cc2)CC1)C1CC1CN1CCC(c2noc3ccsc23)CC1 (racemic) [832575ES]  4.06 nM
48. C[C@H]1CC[C@H](NC(=O)[C@@H]2C[C@H]2CN2CCN(c3csc4ncccc34)CC2)CC1 [compound 833700]  3.24 nM
49. Cc1cccc(CN2CCC(NC(=O)[C@@H]3C[C@H]3CN3CCN(c4csc5cc(C(F)(F)F)ccc45)CC3)CC2)c1 [compound 832789]  3.05 nM
50. COc1ccccc1CN1CCC(NC(=O)[C@@H]2C[C@H]2CN2CCN(c3csc4cc(C(F)(F)F)ccc34)CC2)CC1 [compound 832739]  2.89 nM
51. Cn1nc(N2CCN(C[C@@H]3C[C@H]3C(=O)NC3CCN(CC4CCCCC4)CC3)CC2)c2sccc21 [A002287757]  2.41 nM
52. O=C(NC1CCN(Cc2ncc[nH]2)CC1)C1CC1CN1CCC(c2noc3ccsc23)CC1 (racemic) [compound 832392]  2.29 nM
53. C[C@H]1CC[C@H](NC(=O)[C@@H]2C[C@H]2CN2CCC(c3nn(-c4ccccc4)c4ccsc34)CC2)CC1 [compound 833909]  1.86 nM
54. CN1CCC(N(C)C(=O)[C@@H]2C[C@H]2CN2CCN(c3csc4cc(C(F)(F)F)ccc34)CC2)CC1 [compound 832577]  1.85 nM
55. Cc1cccc(CN2CCC(NC(=O)[C@@H]3C[C@H]3CN3CCC(c4noc5ccsc45)CC3)CC2)c1 [compound 832788]  1.84 nM
56. O=C(NC1CCN(Cc2ccc(F)cc2F)CC1)[C@@H]1C[C@H]1CN1CCC(c2noc3ccsc23)CC1 [compound 833167]  1.57 nM
57. Cc1ccc2c(c1)c(C1CCN(C[C@@H]3C[C@H]3C(=O)N3CCC[C@@H](Cn4ccnc4)C3)CC1)nn2C [A002437354]  1.03 nM
58. Cc1ccc(CN2CCC(NC(=O)[C@@H]3C[C@H]3CN3CCC(c4noc5ccsc45)CC3)CC2)cc1 [compound 833482]  0.962 nM
59. Cn1nc(N2CCN(C[C@@H]3C[C@H]3C(=O)N[C@H]3CC[C@H](C)CC3)CC2)c2ccccc21 [compound 833702]  0.495 nM
60. O=C(C1CC1CN1CCC(c2noc3ccsc23)CC1)N1CCN(Cc2ccc(Cl)cc2)CC1 (racemic) [compound 832156]  0.315 nM
61. C[C@H]1CC[C@H](NC(=O)[C@@H]2C[C@H]2CN2CCC(c3noc4ccc(C(F)(F)F)cc34)CC2)CC1 [compound 834012, 2R-[4-(5-Trifluoromethyl-benzo[d]isoxazol-3-yl)-piperidin-1-ylmethyl]-cyclopropane-1R-carboxylic acid trans-(4-methyl-cyclohexyl)-amide]  0.241 nM
62. O=C(NCCCN1CCCCC1)[C@@H]1C[C@H]1CN1CCN(c2csc3cc(C(F)(F)F)ccc23)CC1 [compound 831491]  0.187 nM

same assay, conditions: read-out: d3Ki

In order of falling Ki:
1. CN(C(=O)CCCCN1CCN(c2csc3cc(F)ccc23)CC1)c1ccc(C(C)(C)C)cc1 [compound 822140]  113 nM
2. O=C(CCCN1CCN(c2csc3cc(F)ccc23)CC1CCCc1ccccc1)N(CCO)C1CCCCC1 (centres unmarked) [compound 827111]  14.3 nM
